Results on two compounds are retold here after US7501538B2, “Aryl and heteroaryl compounds, compositions and methods of use” (TransTech Pharma, Inc., priority 2003, dated 2009).

pKd: −log10 of the molar value. Where two headings read alike, the source gives them in different places.

One assay relates to UT-7 cells (UT7/EPO). Nature of the assay: Cell Proliferation Assay (AlamarBlue), UT-7. Conditions: UT-7 assay, at or below 1000 micromolar compound concentration. In kind it is cell-based. Here is the method: UT-7 and FDC-P1 cell proliferation was assessed by AlamarBlue (BioSource International Inc., Camarillo, Calif. 93012, USA). Briefly, the cells were plated into 96-well Costar cell culture plate (Corning Incorporated, Corning, N.Y. 14831, USA) at 7000 cells/well and 4000 cells/well for UT7/EPO and FDC-P1 cell line, respectively. The test compound and/or vehicle was added to each well with a final concentration of 1% DMSO and incubated in an atmosphere of 5% CO2 at 37° C. for 66 hours. After a further 6 hour incubation in the presence of AlamarBlue, fluorescent intensity was measured using a SpectraMax Gemini (Molecular Devices, Sunnyvale, Calif. 94089, USA) plate reader, with excitation at 530 nm and emission at 590 nm. The Percent Increase=((RFU Test-RFU Medium)/(RFU Vehicle-RFU Medium)-1)*100. Recombinant human EPO (Research Diagnostics, Inc., Flanders, N.J. 07836, USA) was used in the assay as a positive control.
Background: The colour change of resazurin is a common sign of viable cells or microbes.

The target of another assay is receptors for EPO. To be noted: cited from earlier work.

On to `CC(C)(C)c1ccc(COc2ccc(C[C@H](NC(=O)c3cc(Cl)ccc3NCc3cccc4ccccc34)C(=O)O)cc2)cc1` [Example 4, (2S)-3-[4-(4-tert-butyl-benzyloxy)-phenyl]-2-{5-chloro-2-[(naphthalen-1-ylmethyl)-amino]-benzoylamino}-propionic acid], for which, in the assay on UT-7 cells (UT7/EPO), the “cell proliferation (Percent Increase)” value is given as < 20%.

By pKd is commonly meant −log10 of the Kd, conventionally taken in molar units. Consider “EPO: 165 amino acid, 34 kilodalton (kDa) glycoprotein hormone regulating red blood cell production”, for which the pKd was 10.00 to 10.12 on receptors for EPO (high affinity receptor, read-out: Kd, high affinity receptors for EPO) and 9.10 to 9.66 on receptors for EPO (low affinity receptor, read-out: Kd, low affinity receptors for EPO).
